Measurements published in patent publication US20240262795A1, “PYRAZINE COMPOUNDS AS INHIBITORS OF FLT3” (Biomea Fusion, Inc., priority 2021, published 2024).

What was measured:
Type in all cases: cell-based, human
[1] = test system: MV-4-11; experiment: Proliferation inhibition, CellTiter-Glo, MV-4-11; details: Homo sapiens, MV4-11, 96 h; MV-4:11 cells, IC50 (4 days), CellTiter-Glo; read-out: MV-4:11 IC50
Excerpt: (§1) The proliferation inhibitory effect was investigated in human AML cell lines MOLM-13 (AddexBio: C0003003) and MV-4-11 (ATCC: CRL-9591), and CML cell line […] (ATCC: CRL-3343). Molm-13 is heterozygous for FLT3-ITD mutation, while MV4-11 is homozygous for FLT3-ITD (Quentmeier H, et al., Leukemia. 17(1):120-4). […] Cells were maintained in RPMI-1640 medium (ThermoFisher catalog no. 61870036) supplemented with 10% of Heat Inactivated FBS (ThermoFisher catalog no. A31605) and 1% Pen-Strep (ThermoFisher catalog no. 10378016) and cultured at 37° C. in a humidified incubator with 5% CO2. Cell lines were grown by […], and the cells were maintained in a range 70%-80% confluency.
(§2) ATP is present in all metabolically active cells and is considered as a marker for cell viability and proliferation. Metabolic cell activity was determined using the CellTiter-Glo kit (Promega catalog no. G7572), an ATP monitoring system based on the production of luminescence by the reaction of ATP with added UltraGlo® recombinant luciferase (Kawano et al., 2016, PLOS One, 8; 11(7):e0158888), according to the supplier's experimental recommendations. The assay was based on a 96 well plate format.
(§3) Test compounds were dissolved at 10 mM in DMSO (Sigma catalog no. D8418; purity≥99.9%) and stored at −20° C. Eight concentrations of test compound were assessed in duplicate in an individual test occasion in parallel in the selected cell lines. Gilteratinib and FF-10101 were used as reference compounds and tested in duplicate at eight concentrations. 100% of proliferation is represented by the untreated cells (0.2% DMSO).
(§4) On the day of the experiment, cells were quantified with the cell viability analyzer NucleoCounter (Chemometec NC-200) and diluted with fresh medium to obtain the cell density of about 10,000 cells per 200 μL medium. 200 μL of cell suspension were added into wells in the 96 well plate.
(§5) After 2 hours from seeding cells, compounds at desired concentrations were added using a D300e compound dispenser (Life Sciences Tecan D300) with shaking between each compound dispensed. Assay plates were incubated at 37° C. in a humidified incubator with 5% CO2.
(§6) On day 4 (˜96 hrs after compound addition) assay plates were equilibrated at room temperature for approximately 15 min, and then 40 μL/well of the Promega CellTiterGlo® reagent was added. Contents were mixed for 5 min on an orbital shaker to promote cell lysis, and then incubated at room temperature for an additional 10 min in the dark to stabilize the luminescent signal. Luminescence was read by using a GloMlax GM300 plate reader (Promega) using the luminescence for 96 well plate standard protocol.
(§7) Results were analyzed by GraphPad (Prism) and IC50 values were calculated by non-linear regression using four parameter-logistic equation.

[2] = test system: K-562; experiment: Proliferation inhibition, CellTiter-Glo, K-562; details: Homo sapiens, K562, 96 h; K-562 cells, IC50 (4 days), CellTiter-Glo; read-out: K-562 IC50
Excerpt: as §1, §2, §3, §4, §5, §6, §7

[3] = test system: MOLM-13; experiment: Proliferation inhibition, CellTiter-Glo, MOLM-13; details: Homo sapiens, 96 h; MOLM-13 cells, IC50 (4 days), CellTiter-Glo; read-out: MOLM-13 IC50
Excerpt: as §1, §2, §3, §4, §5, §6, §7

Row | Compound | IC50 [1] | IC50 [2] | IC50 [3]
1 | C=CC(=O)N(C)[C@@H](C)C(=O)NCCc1cccc(Nc2nc(N(C)CC)c(C)nc2C(N)=O)c1 [Compound 225, 5-[ethyl(methyl)amino]-6-methyl-3-[3-[2-[[(2S)-2-[methyl(prop-2-enoyl)amino]propanoyl]amino]ethyl]anilino]pyrazine-2-carboxamide] | 0.001 to 0.01 µM | > 0.5 µM | 0.01 to 0.1 µM
2 | Cc1nc(C(N)=O)c(Nc2cccc(CCNC(=O)[C@H](C)N(C)C(=O)/C=C/CN3CCC3)c2)nc1N(C)C [Compound 230, (S,E)-3-((3-(2-(2-(4-(azetidin-1-yl)-N-methylbut-2-enamido)propanamido)ethyl)phenyl)amino)-5-(dimethylamino)-6-methylpyrazine-2-carboxamide] | < 0.001 µM | > 0.5 µM | 0.001 to 0.01 µM
3 | C=CC(=O)N(C)[C@@H](C)C(=O)NCCc1cccc(Nc2nc(N(C)C(C)C)c(C)nc2C(N)=O)c1 [Compound 231, 5-[isopropyl(methyl)amino]-6-methyl-3-[3-[2-[[(2S)-2-[methyl(prop-2-enoyl)amino]propanoyl]amino]ethyl]anilino]pyrazine-2-carboxamide] | 0.001 to 0.01 µM | > 0.5 µM | 0.01 to 0.1 µM
4 | C=CC(=O)N(C)[C@H](C)C(=O)NCCc1cccc(Nc2nc(C3CC3)c(CC)nc2C(N)=O)c1 [Compound 236, 5-cyclopropyl-6-ethyl-3-[3-[2-[[(2R)-2-[methyl(prop-2-enoyl)amino]propanoyl]amino]ethyl]anilino]pyrazine-2-carboxamide] | 0.01 to 0.1 µM | > 0.5 µM | 0.01 to 0.1 µM
5 | [2H]C([2H])([2H])N(C(=O)C=C)[C@@H](C)C(=O)NCCc1cccc(Nc2nc(C3CC3)c(CC)nc2C(N)=O)c1 [Compound 237, 5-cyclopropyl-6-ethyl-3-[3-[2-[[(2S)-2-[prop-2-enoyl(trideuteriomethyl)amino]propanoyl]amino]ethyl]anilino]pyrazine-2-carboxamide] | 0.001 to 0.01 µM | > 0.5 µM | 0.01 to 0.1 µM
6 | C=CC(=O)N(C)[C@@H](C)C(=O)NCCc1cccc(Nc2nc(C)c(C)nc2C(N)=O)c1 [Compound 238, 5,6-dimethyl-3-[3-[2-[[(2S)-2-[methyl(prop-2-enoyl)amino]propanoyl]amino]ethyl]anilino]pyrazine-2-carboxamide] | > 0.5 µM | > 0.5 µM | > 0.5 µM
7 | Cc1nc(C(N)=O)c(Nc2cccc(CCNC(=O)[C@H](C)N(C)C(=O)/C=C/CN3CCC3)c2)nc1C1CC1 [Compound 242, (S,E)-3-((3-(2-(2-(4-(azetidin-1-yl)-N-methylbut-2-enamido)propanamido)ethyl)phenyl)amino)-5-cyclopropyl-6-methylpyrazine-2-carboxamide] | 0.001 to 0.01 µM | > 0.5 µM | 0.001 to 0.01 µM
8 | Cc1nc(Nc2cc(F)cc(CCNC(=O)[C@H](C)N(C)C(=O)/C=C/CN(C)C)c2)c(C(N)=O)nc1C [Compound 245, 3-[3-[2-[[(2S)-2-[[(E)-4-(dimethylamino)but-2-enoyl]-methyl-amino]propanoyl]amino]ethyl]-5-fluoro-anilino]-5,6-dimethyl-pyrazine-2-carboxamide] | 0.001 to 0.01 µM | > 0.5 µM | 0.01 to 0.1 µM
9 | [2H]C([2H])([2H])N(C/C=C/C(=O)N(C)[C@@H](C)C(=O)NCCc1cccc(Nc2nc(N(C)C(C)C)c(C)nc2C(N)=O)c1)C([2H])([2H])[2H] [Compound 247, (S,E)-3-((3-(2-(2-(4-(bis(methyl-d3)amino)-N-methylbut-2-enamido)propanamido)ethyl)phenyl)amino)-5-(isopropyl(methyl)amino)-6-methylpyrazine-2-carboxamide] | < 0.001 µM | > 0.5 µM | 0.001 to 0.01 µM

The remaining lines, values ahead:

Row | IC50 [1] | IC50 [2] | IC50 [3] | Compound
10 | < 0.001 µM | > 0.5 µM | 0.001 to 0.01 µM | CCc1nc(C(N)=O)c(Nc2cccc(CCNC(=O)[C@H](C)N(C)C(=O)/C=C/CNC)c2)nc1C1CC1 [Compound 224, (S,E)-5-cyclopropyl-6-ethyl-3-((3-(2-(2-(N-methyl-4-(methylamino)but-2-enamido)propanamido)ethyl)phenyl)amino)pyrazine-2-carboxamide]
11 | < 0.001 µM | > 0.5 µM | 0.001 to 0.01 µM | CCc1nc(C(N)=O)c(Nc2cccc(CCNC(=O)CN(C)C(=O)/C=C/CN(C)C)c2)nc1C [Compound 226, (E)-3-((3-(2-(2-(4-(dimethylamino)-N-methylbut-2-enamido)acetamido)ethyl)phenyl)amino)-6-ethyl-5-methylpyrazine-2-carboxamide]
12 | 0.001 to 0.01 µM | > 0.5 µM | 0.001 to 0.01 µM | CCc1nc(C(N)=O)c(Nc2cccc(CCNC(=O)[C@H](C)N(C)C(=O)/C=C/CNC)c2)nc1C [Compound 227, (S,E)-6-ethyl-5-methyl-3-((3-(2-(2-(N-methyl-4-(methylamino)but-2-enamido)propanamido)ethyl)phenyl)amino)pyrazine-2-carboxamide]
13 | 0.001 to 0.01 µM | > 0.5 µM | 0.001 to 0.01 µM | Cc1nc(C(N)=O)c(Nc2cccc(CCNC(=O)[C@H](C)N(C)C(=O)/C=C/CN(C)C)c2)nc1C1CC1 [Compound 228, (S,E)-5-cyclopropyl-3-((3-(2-(2-(4-(dimethylamino)-N-methylbut-2-enamido)propanamido)ethyl)phenyl)amino)-6-methylpyrazine-2-carboxamide]
14 | < 0.001 µM | > 0.5 µM | 0.001 to 0.01 µM | Cc1nc(C(N)=O)c(Nc2cccc(CCNC(=O)[C@H](C)N(C)C(=O)/C=C/CN(C)C)c2)nc1N(C)C [Compound 233, (S,E)-5-(dimethylamino)-3-((3-(2-(2-(4-(dimethylamino)-N-methylbut-2-enamido)propanamido)ethyl)phenyl)amino)-6-methylpyrazine-2-carboxamide]
15 | 0.01 to 0.1 µM | > 0.5 µM | > 0.5 µM | CCc1nc(C(N)=O)c(Nc2cccc(CCNC(=O)[C@@H](C)N(C)C(=O)/C=C/CN(C)C)c2)nc1C [Compound 234, 3-[3-[2-[[(2R)-2-[[(E)-4-(dimethylamino)but-2-enoyl]-methyl-amino]propanoyl]amino]ethyl]anilino]-6-ethyl-5-methyl-pyrazine-2-carboxamide]
16 | 0.01 to 0.1 µM | > 0.5 µM | > 0.5 µM | CCc1nc(C(N)=O)c(Nc2cccc(CCNC(=O)[C@H](C)N(C)C(=O)/C=C/CN3CC(F)C3)c2)nc1C [Compound 240, 6-ethyl-3-[3-[2-[[(2S)-2-[[(E)-4-(3-fluoroazetidin-1-yl)but-2-enoyl]-methyl-amino]propanoyl]amino]ethyl]anilino]-5-methyl-pyrazine-2-carboxamide]
17 | < 0.001 µM | > 0.5 µM | 0.001 to 0.01 µM | CCc1nc(Nc2cccc(CCNC(=O)[C@H](C)N(C)C(=O)/C=C/CN(C)C)c2)c(C(N)=O)nc1CC [Compound 243, (S,E)-3-((3-(2-(2-(4-(dimethylamino)-N-methylbut-2-enamido)propanamido)ethyl)phenyl)amino)-5,6-diethylpyrazine-2-carboxamide]
18 | < 0.001 µM | > 0.5 µM | 0.001 to 0.01 µM | CCc1nc(C(N)=O)c(Nc2cccc(CCNC(=O)[C@H](C)N(C)C(=O)C#CCN(C)C)c2)nc1C [Compound 244, (S)-3-((3-(2-(2-(4-(dimethylamino)-N-methylbut-2-ynamido)propanamido)ethyl)phenyl)amino)-6-ethyl-5-methylpyrazine-2-carboxamide]
19 | < 0.001 µM | > 0.5 µM | < 0.001 µM | [2H]C([2H])([2H])N(C/C=C/C(=O)N(C)[C@@H](C)C(=O)NCCc1cccc(Nc2nc(N(C)CC)c(CC)nc2C(N)=O)c1)C([2H])([2H])[2H] [Compound 246, (S,E)-3-((3-(2-(2-(4-(bis(methyl-d3)amino)-N-methylbut-2-enamido)propanamido)ethyl)phenyl)amino)-6-ethyl-5-(ethyl(methyl)amino)pyrazine-2-carboxamide]
